Laboratory results: patent publication US20260191818A1 (University of South Carolina, priority 2022, published 2026)

Columns and labels:
C26 model of cachexia = details: Quercetin 35 mg/kg; cited from earlier work
C26 tumor-bearing mice = C26 tumor-bearing mice given 5FU (cancer and chemotherapy-induced cachexia): body, tumor and tissue weights, food intake; assay type: in vivo, CD2F1 mice
Description: Male (n=20) CD2F1 (CD2F1) hybrid mice were purchased from Charles River Laboratory (Raleigh, NC) at 10 weeks of age. Mice arrived at our facilities and were given AlN76 diet and allowed to acclimate to the new facilities and purified diet for 4 weeks. Mice were kept in ventilated cages (5 per cage), on a 12:12 h light/dark cycle, in a humidity and temperature control room (~22° C.) and given ad libitum access to water and food. Animal handling and experiments were performed to minimize pain and discomfort. […] Control mice were non-tumor-bearing mice given PBS i.p. and propylene glycol p.o. as vehicle controls. Body weights were measured daily. Food weights per cage were measured daily and average food intake was calculated by the difference in food weight between days. […] Hind limb muscles and select organs were excised, weighed, and snap frozen in liquid nitrogen while mice were under sedation (2% Isoflurane, 2 L/min O2). All procedures involving animals were reviewed and approved by the Institutional Animal Care and Usage Committee (IACUC) at the University of South Carolina in accordance with the American Association for Laboratory Animal Science. C26 (colon 26 adenocarcinoma) cells were gifted from Dr. Andrea Bonetto's laboratory and grown in complete DMEM (10% fetal bovine serum, 1% penicillin/streptomycin). Cells were split at 70% confluency and passage 3 was used for cell implantation. On Day 0, CD2F1 mice were given a subcutaneous injection of 1×10^6 C26 cells in the subscapular area as previously described. See, Bonetto, A., et al., The Colon-26 Carcinoma Tumor-bearing Mouse as a Model for the Study of Cancer Cachexia. J Vis Exp, 2016(117). Tumors were palpable at Day 8 in all C26 tumor-bearing mice. […] VWR; CAS #:51-21-8) was solubilized in warmed phosphate buffered saline (PBS) at 3.0 mg/mL, sterile filtered with a 0.2 μm filter and administered at the beginning of the light cycle (0700) via i.p. injection to mice with established tumor (day 11 after C26 implantation). […] Cancer Biol Ther, 2022. 23(1): p. 1-15; and […]., et al., The Acute Effects of 5 Fluorouracil on Skeletal Muscle Resident and Infiltrating Immune Cells in Mice. […] Data were analyzed using Prism 8 statistical software (GraphPad Software, CA, USA). […] The healthy controls are shown as a reference point but were not included in statistical analysis. Additionally, the C26 alone group was not included in analysis, but is shown as a reference point for tumor growth without chemotherapy intervention. Data are presented as the mean±SEM and the level of significance was set up at p<0.05.

CD2F1 mice = details: mouse, in vivo; cited from earlier work
[1] = test system: soleus muscle mitochondria; test: Transmission electron microscopy of soleus muscle, mitochondrial number and size; assay type: in vivo, CD2F1 mice; details: C26+5FU+Quer vs C26+5FU
Description: Mitochondrial number and size were assessed in the soleus muscle using transmission electron microscopy (TEM). Skeletal muscle was prepared for TEM as previously described. See, VanderVeen, B. N., et al., 5-Fluorouracil disrupts skeletal muscle immune cells and impairs skeletal muscle repair and remodeling. J Appl Physiol (1985), 2022. 133(4): p. 834-849. The soleus was excised and initially fixed in 2.5% EM-grade glutaraldehyde followed by a secondary fixation in 1% osmium tetroxide and 1.5% K+ ferricyanide. After dehydration with increasing concentrations of ethanol, the samples were transferred to acetonitrile and embedded in Polybed 812. Ultrathin (~70 nm) sections were cut with a Leica Reichert Ultracut R ultramicrotome (Leica Microsystems GmbH, Wetzlar, Germany), collected on copper grids and stained with uranyl acetate and lead citrate. A JEOL 1400+ transmission electron microscope (JEOL USA, Peabody, MA) was used to view sections, and digital images were obtained with an Advanced Microscopy Techniques XR 81 Camera (Advanced Microscopy Techniques, Woburn, MA). Tissues were searched for intact and aligned sarcomeres by an investigator blinded to the experimental groups. […] Mitochondrial size was calculated by circling discernible mitochondria with ImageJ within the F.O.V. and averaged across the multiple images within a single mouse.

[2] = test system: tibialis anterior (TA) muscle; test: Muscle histology (H&E), myofibrillar cross sectional area of tibialis anterior; assay type: in vivo, CD2F1 mice; details: C26+5FU+Quer vs C26+5FU
Description: Skeletal muscle histology was assessed via hematoxylin and eosin (H&E) staining on tibialis anterior (TA) muscle cryosections. The TA muscle was dissected, snap-frozen in liquid nitrogen with Optimum Cutting Temperature (OCT) embedding medium placed on the most distal portion of the TA and stored in −80° C. Tissue was acclimated to the cryostat temperature (−24° C.) prior to collection of transverse sections ([…]) on Fisherbrand Superfrost Plus Microscope Slides. TA tissue slides were then stored at −80° C. until staining. Slides were fixed in ice-cold acetone and H&E staining was completed as previously described. […] Cancer Biol Ther, 2022. 23(1); and VanderVeen, B. N., et al., 5-Fluorouracil disrupts skeletal muscle immune cells and impairs skeletal muscle repair and remodeling. J Appl Physiol (1985), 2022. 133(4): p. 834-849. Images of H&E stains were taken at 20× and 40× magnification using a Keyence BZX800 microscope. Muscle cross sectional area (mCSA) was measured using ImageJ by measuring the circumference of 500-700 myofibers/mouse (n=3-5/group).

O=c1c(O)c(-c2ccc(O)c(O)c2)oc2cc(O)cc(O)c12 [quercetin, 3,4,5,7-pentahydroxylflavone]
muscle mass loss (C26 model of cachexia): protected against muscle mass loss
greater EDL weight (C26 tumor-bearing mice; C26+5FU+Quer vs C26+5FU, p=0.039): 23.7%
greater gonadal fat pad weight (C26 tumor-bearing mice; C26+5FU+Quer vs C26+5FU, p=0.04): 50.0%
greater gastrocnemius weight (C26 tumor-bearing mice; C26+5FU+Quer vs C26+5FU, p=0.055): 13.9%
other measured muscle weights (C26 tumor-bearing mice; C26+5FU+Quer vs C26+5FU, p=0.09-0.15): did not achieve statistically significant differences
greater RF (rectus femoris) weight (C26 tumor-bearing mice; C26+5FU+Quer vs C26+5FU, quercetin 50 mg/kg p.o., p=0.02): 14.4%
impact on body weight loss (C26 tumor-bearing mice; mice given 5FU 30 mg/kg lean mass i.p., quercetin 50 mg/kg p.o. vs propylene glycol, daily from Day 11): no apparent impact
sub-chronic toxicity (CD2F1 mice): no deleterious effects or toxicities
greater number of mitochondria ([1]; soleus TEM per F.O.V., p=0.04): 89.6%
greater mitochondrial size ([1]; soleus TEM, p>0.01 as printed): 45.3%
myofibrillar fiber size distribution [2]: rightward shift
increase in TA mean CSA ([2]; H&E): 32.0%
